# Laboratory results taken from patent publication US20240002332A1, “Small Molecule Inhibitors of SARS-CoV-2 Infections” (priority 2020, published 2024).
# Experiments:
# [1] = Parallel artificial membrane permeability assay (PAMPA); conditions: PAMPA, pH 5
# [2] = Rat liver microsomal (RLM) stability; conditions: rat, microsomes
# [3] = Pharmacokinetics in mice IV 3 and PO 10 mg/kg; plasma, lung and liver; conditions: for Kp: AUC ratio (tissue/plasma)
# [4] = mice, Compound P3 dosed PO 10 mg/kg, Liver
# [5] = mice, Compound P3 dosed PO 10 mg/kg, Lung
# [6] = mice, Compound P3 dosed PO 10 mg/kg, Plasma
# [7] = mouse Plasma, Compound P3 dosed IV 3 mg/kg
# [8] = mouse Plasma, Compound P3 dosed PO 10 mg/kg
compound,measurement,setting,value
"O=C(Nc1ccc([N+](=O)[O-])cc1Cl)c1cc(Cl)ccc1OC(=O)N1CCNCC1 [Compound P3, 4-chloro-2-((2-chloro-4-nitrophenyl)carbamoyl)phenyl piperazine-1-carboxylate]",Papp,[1],500 ×10⁻⁶ cm/s
same,half-life,[2],> 0.5 h
same,clearance,[3]; mice,moderate
same,AUC0-INF/D,[3]; [4],65.7 kg·ng·h/mL/mg
same,AUC_% Extrap,[3]; [4],0.9%
same,Cmax/D,[3]; [4],24 kg·ng/mL/mg
same,AUC0-INF/D,[3]; [5],24400 kg·ng·h/mL/mg
same,AUC_% Extrap,[3]; [5],0.2%
same,Cmax/D,[3]; [5],4420 kg·ng/mL/mg
same,Tmax,[3]; [5],1.5 h
same,t1/2,[3]; [5],2.8 h
same,AUC0-INF,[3]; [6],3530 ng·h/mL
same,AUC0-INF/D,[3]; [6],353 kg·ng·h/mL/mg
same,AUC_% Extrap,[3]; [6],0.5%
same,Cmax,[3]; [6],606 ng/mL
same,Cmax/D,[3]; [6],60.6 kg·ng/mL/mg
same,AUCINF/D,[3]; [7],426 kg·ng·h/mL/mg
same,AUCLast/D,[3]; [7],425 kg·ng·h/mL/mg
same,AUC_%Extrap_obs,[3]; [7],0.06%
same,Clast,[3]; [7],0.163 ng/mL
same,Cmax/D,[3]; [7],154 kg·ng/mL/mg
same,Tlast,[3]; [7],48 h
same,AUCINF/D,[3]; [8],353 kg·ng·h/mL/mg
same,AUCINF_obs,[3]; [8],3530 ng·h/mL
same,AUCLast/D,[3]; [8],351 kg·ng·h/mL/mg
same,AUC_%Extrap_obs,[3]; [8],0.5%
same,Clast,[3]; [8],5.23 ng/mL
same,Cmax/D,[3]; [8],60.6 kg·ng/mL/mg
same,F,[3]; [8],83%
same,Tlast,[3]; [8],30 h
same,bioavailability,"[3]; mouse, in vivo, 10 mg/kg",83%
same,C0,"[3]; mouse, in vivo, iv, 3 mg/kg",536 ng/mL
same,Tmax,"[3]; mouse, in vivo, iv, 3 mg/kg",0.083 h
same,Vd,"[3]; mouse, in vivo, iv, 3 mg/kg",8.9 L/kg
same,clearance,"[3]; mouse, in vivo, iv, 3 mg/kg",39 mL/min/kg
same,AUC(0-inf),"[3]; mouse, in vivo, iv, 3 mg/kg, AUCINF_obs, mouse Plasma, Compound P3 dosed IV 3 mg/kg",1280 ng·h/mL
same,AUC(0-t),"[3]; mouse, in vivo, iv, 3 mg/kg, AUClast, mouse Plasma, Compound P3 dosed IV 3 mg/kg",1280 ng·h/mL
same,Cmax,"[3]; mouse, in vivo, iv, 3 mg/kg, Cmax, mouse Plasma, Compound P3 dosed IV 3 mg/kg",461 ng/mL
same,half-life,"[3]; mouse, in vivo, iv, 3 mg/kg, t½, mouse Plasma, Compound P3 dosed IV 3 mg/kg",3.3 h
same,AUC(0-inf),"[3]; mouse, in vivo, po, 10 mg/kg, AUC0-INF, mice, Compound P3 dosed PO 10 mg/kg, Liver",657 ng·h/mL
same,AUC(0-inf),"[3]; mouse, in vivo, po, 10 mg/kg, AUC0-INF, mice, Compound P3 dosed PO 10 mg/kg, Lung",244000 ng·h/mL
same,AUC(0-t),"[3]; mouse, in vivo, po, 10 mg/kg, AUC0-last, mice, Compound P3 dosed PO 10 mg/kg, Liver",651 ng·h/mL
same,AUC(0-t),"[3]; mouse, in vivo, po, 10 mg/kg, AUC0-last, mice, Compound P3 dosed PO 10 mg/kg, Lung",244000 ng·h/mL
same,AUC(0-t),"[3]; mouse, in vivo, po, 10 mg/kg, AUC0-last, mice, Compound P3 dosed PO 10 mg/kg, Plasma",3510 ng·h/mL
same,Kp,"[3]; mouse, in vivo, po, 10 mg/kg, mice, Compound P3 dosed PO 10 mg/kg, Liver",0.19
same,Kp,"[3]; mouse, in vivo, po, 10 mg/kg, mice, Compound P3 dosed PO 10 mg/kg, Lung",69
same,AUC(0-t),"[3]; mouse, in vivo, po, 10 mg/kg, AUClast, mouse Plasma, Compound P3 dosed PO 10 mg/kg",3510 ng·h/mL
same,Cmax,"[3]; mouse, in vivo, po, 10 mg/kg, Cmax, mice, Compound P3 dosed PO 10 mg/kg, Liver",240 ng/mL
same,Cmax,"[3]; mouse, in vivo, po, 10 mg/kg, Cmax, mice, Compound P3 dosed PO 10 mg/kg, Lung",44200 ng/mL
same,half-life,"[3]; mouse, in vivo, po, 10 mg/kg, t1/2, mice, Compound P3 dosed PO 10 mg/kg, Liver",4 h
same,half-life,"[3]; mouse, in vivo, po, 10 mg/kg, t1/2, mice, Compound P3 dosed PO 10 mg/kg, Plasma",2.2 h
same,half-life,"[3]; mouse, in vivo, po, 10 mg/kg, t½, mouse Plasma, Compound P3 dosed PO 10 mg/kg",2.2 h
